A short description of data set [1]: Bidirectional permeability in Caco2 cells. It is filed as in vitro ADME. To be noted: human, Caco-2, 1 or 10 µM, pH 7.4; for Papp A→B: apical to basolateral. How it is done:
Bidirectional permeability of test compounds across a Caco2 cell monolayer was measured as described previously. […] Cells were incubated with the compounds for up to 2 h, and samples from the opposite (receiver) compartment were taken at different time points.

Data set [2] in a line: Solubility testing (aqueous, LCUV). It is filed as physicochemical. To be noted: aqueous buffer, kinetic from dmso stock, pH 6.8, final concentration 125 µg/mL. Here is the method:
Dilution into a 1:1 mixture of acetonitrile and water was used as a reference. After 24 h, the incubations were filtrated, and the filtrate was analyzed by LCUV.

Data set [3] has as its system VHL. To be noted: read-out: TR-FRET IC50 (value marked *: FP assay), ref as reported previously; cited from earlier work. In general terms: TR-FRET usually uses a lanthanide donor and a delayed reading to cut background.
The target in data set [4] is VCB (VHL-ElonginC-ElonginB) complex (Homo sapiens, UniProt P40337). Kind of data set: TR-FRET VCB—VHL tracer binding assay.
Data set [5] concerns the target 13C-methyl labeled VCB complex (Homo sapiens, UniProt P40337). Kind of data set: Protein-observed NMR titration / hit validation. The note with it: for induced CSPs, Val and Leu region (binding region): 200 µM 13C labeled VCB, 500 µM VH298 or reference molecule 2, 1000 µM of 1.
A short description of data set [6]: NMR detected solubility in NMR buffer. It is filed as physicochemical. The note with it: 500 µM target, 20 mM TRIS, 100 mM NaCl, pH 7.5 in D2O, 1H NMR vs maleic acid.
[7] abbreviates: read-out: TR-FRET IC50, Cy5-labeled VHL tracer, 10 nM His-tagged VCB, mean ± s.d., 1 as diastereomeric mixture.

The source of these data is article PMC11997059, “Drugit: crowd-sourcing molecular design of non-peptidic VHL binders” (Nature Communications, 2025).

Converted amounts (≈) assume the structure as drawn. Where two headings read alike, the source gives them in different places.

Sequence of VCB (VHL-ElonginC-ElonginB) complex (P40337 54-213): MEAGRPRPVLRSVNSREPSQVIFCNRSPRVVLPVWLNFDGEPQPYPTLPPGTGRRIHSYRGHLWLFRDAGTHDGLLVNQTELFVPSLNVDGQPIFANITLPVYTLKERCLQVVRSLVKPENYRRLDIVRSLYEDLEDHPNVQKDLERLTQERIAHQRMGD
Sequence of VCB (VHL-ElonginC-ElonginB) complex (Q15370 1-104 partner limits assumed): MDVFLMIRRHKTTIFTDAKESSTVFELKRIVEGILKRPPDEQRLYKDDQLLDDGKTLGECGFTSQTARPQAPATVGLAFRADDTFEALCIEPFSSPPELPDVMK
Sequence of VCB (VHL-ElonginC-ElonginB) complex (Q15369 17-112 partner limits assumed): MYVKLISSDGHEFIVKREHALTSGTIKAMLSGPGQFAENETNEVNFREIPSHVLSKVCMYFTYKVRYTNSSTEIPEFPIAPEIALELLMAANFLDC
Sequence of 13C-methyl labeled VCB complex (P40337 54-213): as the sequence (P40337 54-213) above
Sequence of 13C-methyl labeled VCB complex (Q15370 1-104 partner limits assumed): as the sequence (Q15370 1-104 partner limits assumed) above
Sequence of 13C-methyl labeled VCB complex (Q15369 17-112 partner limits assumed): as the sequence (Q15369 17-112 partner limits assumed) above

As to `Cc1ncsc1-c1ccc(CNC(=O)[C@@H]2C[C@@H](O)CN2C(=O)[C@@H](NC(=O)C2(F)CC2)C(C)(C)C)cc1` [Reference molecule 1], the apical-to-basolateral permeability (Papp A→B) (commonly how fast a substance crosses the layer from the apical side) in data set [1] came out at 2.9 ×10⁻⁶ cm/s. Also, the solubility (usually the concentration that dissolves in the medium under given conditions) at 24 h in data set [2] was > 115 µg/mL. Also, in data set [3], the IC50 (as a rule, the concentration that inhibits the measured activity by half) was […].
`Cc1cc(CC(=O)N2C[C@H](O)C[C@H]2C(=O)NCc2ccc(Cl)cc2)on1` [Reference molecule 2]: the IC50 in data set [4] (setting [7]) is 132 ± 38 µM. In data set [5], the “induced CSPs, Val and Leu region (binding region)” value (shortened to “induced CSPs, Val and Leu region”) is recorded as “interact with the same binding region”. For the same compound, in data set [5] (read-out: NMR KD, fit of dose-dependent chemical shifts of peaks #1 and #2, two independent titrations), the Kd (in general, the constant that tells how readily two partners part at equilibrium) came to 29 ± 1 µM. Besides, the efflux ratio (in general, the permeability from basolateral to apical divided by that in the opposite direction, in the common usage) in data set [1] worked out at 4.8. Further, the solubility at 24 h in data set [2] was > 88 µg/mL.
In the case of `Cc1ncsc1-c1ccc(CNC(=O)[C@@H]2C[C@@H](O)CN2C(=O)[C@@H](NC(=O)C2(C#N)CC2)C(C)(C)C)cc1` [VH298, (2S,4R)-1-((S)-2-(1-Cyanocyclopropanecarboxamido)−3,3-dimethylbutanoyl)-4-hydroxy-N-(4-(4-methylthiazol-5-yl)benzyl)pyrrolidine-2-carboxamide], the “induced CSPs, Val and Leu region” value in data set [5] is on record as “interact with the same binding region”.
Regarding `Cc1ncsc1-c1ccc(CNC(=O)C2CC(O)CN(c3ccccn3)C2=O)cc1` (centres unmarked) [compound 1], the IC50 in data set [4] amounted to 264 ± 30 µM. Further, in data set [5], binding was put at a Kd of 182 ± 76 µM; the “induced CSPs, Val and Leu region” value was “interact with the same binding region”. In data set [1], the Papp A→B stood at 23 ×10⁻⁶ cm/s. Also, in data set [2], the solubility at 24 h was > 98 µg/mL. In addition, the solubility in data set [6] (NMR buffer, aqueous buffer) was > 500 µM.
With `Cc1ncsc1-c1ccc(CNC(=O)c2cc(=O)cc(Cl)[nH]2)cc1` [compound 2], the IC50 in data set [4] (setting [7]) is > 100 µM. In addition, the solubility in data set [6] worked out at 20.0 µM (≈ 7.2 µg/mL).
The like results for `Cc1ncsc1-c1ccc(CNC(=O)c2cc(=O)cc(-c3ccccc3)[nH]2)cc1` [compound 3] were, in that order, 13.8 ± 1.8 µM and 280.0 µM (≈ 112 µg/mL).
As for `Cc1ncsc1-c1ccc(CNC(=O)c2c[nH]cc(Br)c2=O)cc1` [compound 4], in data set [4] (setting [7]), the IC50 was > 100 µM. This compound also yielded a solubility in data set [6] (NMR buffer, aqueous buffer) of 40 µM (≈ 16.2 µg/mL).
For `Cc1ncsc1-c1ccc(CNC(=O)c2c[nH]cc(-c3ccccc3)c2=O)cc1` [compound 5], in data set [4] (setting [7]), the IC50 was > 100 µM. Besides, in data set [6], the solubility is listed as 20.0 µM (≈ 8.03 µg/mL).
The like results for `Cc1ncsc1-c1ccc(CNCc2cc(CO)nc(N(C)c3ccccc3)c2)cc1` [compound 6] were, in that order, > 500 µM and 70.0 µM (≈ 30.1 µg/mL).
The like results for `Cc1ncsc1-c1ccc(CN(Cc2cc(Cl)nc(CO)c2)C(=O)OC(C)(C)C)cc1` [compound 7] were, in that order, 106 ± 5.2 µM and 60.0 µM (≈ 27.6 µg/mL).
The like results for `CN(CCNCc1ccccc1)c1cnn[nH]1` [compound 8] were, in that order, > 500 µM and 430.0 µM (≈ 99.5 µg/mL).
Consider `Cc1ncsc1-c1ccc(CNc2cc(CO)cc3c2cnn3C)cc1` [compound 9], for which the IC50 in data set [4] is > 100 µM. This compound also registered a solubility in data set [6] (NMR buffer, aqueous buffer) of 110 µM (≈ 40.1 µg/mL).
As to `Cc1ncsc1-c1ccc(CNc2cc(CO)cc3nn(C)cc23)cc1` [compound 10], the IC50 in data set [4] is 167 ± 47 µM. The solubility in data set [6] (NMR buffer, aqueous buffer) amounted to 240 µM (≈ 87.5 µg/mL).
`Cc1ncsc1-c1ccc(C(=O)Nc2cc(CO)cc3c2cnn3C)cc1` [compound 11]: in data set [4] (setting [7]), the IC50 is > 500 µM. Further, the solubility in data set [6] was 180.0 µM (≈ 68.1 µg/mL).
The like results for `Cc1ncsc1-c1ccc(C(=O)Nc2cc(CO)cc3nn(C)cc23)cc1` [compound 12] were, in that order, 255 ± 45 µM and 70.0 µM (≈ 26.5 µg/mL).
The like results for `Cc1ncsc1-c1ccc(CNC(=O)c2cc(O)cc(Br)c2)cc1` [compound 13] were, in that order, > 100 µM and 20.0 µM (≈ 8.07 µg/mL).
For the compound `Cc1ncsc1-c1ccc(CNC(=O)c2cc(O)cc(-c3ccccc3)c2)cc1` [compound 14], the 50% inhibitory concentration (IC50) in data set [4] (setting [7]) was determined as 15.6 ± 1.2 µM. The solubility in data set [6] is reported as < 10.0 µM.
For the compound `Cc1ncsc1-c1ccc(-c2ccc3cccc(C(N)=O)c3c2)cc1` [compound 15], the solubility in data set [6] (NMR buffer, aqueous buffer) was < 10 µM.
As for `Cc1ncsc1-c1ccc(-c2ccc3nccc(C(N)=O)c3c2)cc1` [compound 16], the IC50 in data set [4] (setting [7]) was determined as 8.8 ± 0.8 µM. Further, in data set [6], the solubility is given as < 10.0 µM.
The like results for `Cc1ncsc1-c1ccc(CNC(=O)[C@@H]2C[C@@H](O)Cc3ccccc32)cc1` [compound 17] were, in that order, 313 ± 135 µM and 400.0 µM (≈ 151 µg/mL).
As to `Cc1ncsc1-c1ccc(CNC(=O)[C@H]2C[C@H](O)Cc3ccccc32)cc1` [compound 18], the 50% inhibitory concentration (IC50) in data set [4] (setting [7]) turned out to be 166 ± 77 µM. In data set [6], the solubility is recorded as > 500.0 µM.
The like results for `Cc1ncsc1-c1ccc(CNC(=O)C2CC(O)CN(c3ccccn3)C2)cc1` (centres unmarked) [compound 19] were, in that order, > 100 µM and 230.0 µM (≈ 94 µg/mL).
The compound `O=C(Cc1ccc2cc(O)ccc2c1)Nc1cc[nH]n1` [compound 22] returned an IC50 in data set [4] of 315 ± 44 µM. Moreover, in data set [6] (NMR buffer, aqueous buffer), the concentration in solution (solubility) was 350 µM (≈ 93.6 µg/mL).
Take `Cc1ncsc1-c1ccc(CNC(=O)C2CC(O)CC(c3ccccc3)C2)cc1` (centres unmarked) [compound 23]: in data set [4] (setting [7]), the IC50 is > 100 µM. The compound also had a solubility in data set [6] of 110.0 µM (≈ 44.7 µg/mL).
`Cc1ncsc1-c1ccc(CNC(=O)[C@@H]2C[C@@H](O)C[C@H](c3ccccc3)C2)cc1` [compound 24]: the IC50 in data set [4] was > 100 µM. Besides, the solubility in data set [6] (NMR buffer, aqueous buffer) is < 10 µM.
The like results for `Cc1ncsc1-c1ccc(CNC(=O)[C@H]2C[C@H](O)C[C@@H](c3ccccc3)C2)cc1` [compound 25] were, in that order, > 100 µM and < 10 µM.
The like results for `O=S1(=O)Cc2ccccc2-c2[nH]ncc21` [compound 26] were, in that order, 265 ± 74 µM and > 500 µM.
With `O=S1(=O)Cc2ccccc2-c2[nH]nc(Br)c21` [compound 27], the IC50 in data set [4] (setting [7]) was > 500 µM. In addition, the solubility in data set [6] is given as > 500.0 µM.
As to `O=S1(=O)Cc2ccccc2-c2[nH]nc(NCc3ccccc3)c21` [compound 28], in data set [4] (setting [7]), the IC50 came to 244 ± 22 µM. In data set [6], this compound showed a solubility of 360.0 µM (≈ 117 µg/mL).
With `O=[N+]([O-])c1ccc2c(c1)CS(=O)(=O)c1cn[nH]c1-2` [compound 29], in data set [4] (setting [7]), the half-maximal inhibitory concentration (IC50) is 175 ± 18 µM.
`Cc1ncsc1-c1ccc(CNc2cc(C(C)C)c[nH]c2=O)cc1` [compound 33] came in with a half-inhibitory concentration (IC50) in data set [4] of 71.7 ± 49.3 µM. In data set [6] (NMR buffer, aqueous buffer), this compound came in with a solubility of 50 µM (≈ 17 µg/mL).
For the compound `Cc1ncsc1-c1ccc(CNC(=O)c2cc(Br)c[nH]c2=O)cc1` [compound 34], the IC50 in data set [4] (setting [7]) was > 100 µM. In data set [6], this compound displayed a solubility of 20.0 µM (≈ 8.09 µg/mL).
With `Cc1ncsc1-c1ccc(CNC(=O)c2cc(-c3ccccc3)c[nH]c2=O)cc1` [compound 35], in data set [6], the solubility is < 10.0 µM.
For `Cc1ncsc1-c1ccc(CC(=O)Nc2c[nH]c3ccccc23)cc1` [compound 36], the IC50 in data set [4] (setting [7]) is 13 ± 4.5 µM. The solubility in data set [6] is < 10.0 µM.
The like results for `Cc1ncsc1-c1ccc(CNC(=O)Cc2ccc(-c3ccccc3)cc2CO)cc1` [compound 37] were, in that order, > 100 µM and < 10.0 µM.
The like results for `Cc1ncsc1-c1ccc(CNCc2cc(O)cc(Br)c2)cc1` [compound 38] were, in that order, 85.7 ± 16.2 µM and 80.0 µM (≈ 31.1 µg/mL).
The like results for `Cc1ncsc1-c1ccc(CN(Cc2cc(O)cc(Br)c2)C(=O)OC(C)(C)C)cc1` [compound 39] were, in that order, 70.7 ± 0.4 µM and < 10.0 µM.
For the compound `Cc1ncsc1-c1ccc(CNCc2cc(O)cc(N(C)c3ccccc3)c2)cc1` [compound 40], the half-maximal inhibitory concentration (IC50) in data set [4] turned out to be 67.8 ± 5.1 µM. Moreover, the solubility in data set [6] (NMR buffer, aqueous buffer) was < 10 µM.
As to `Cc1ncsc1-c1ccc(CNC(=O)c2cc(Br)cc(=O)[nH]2)cc1` [compound 41], the IC50 in data set [4] (setting [7]) was > 100 µM. The solubility in data set [6] is reported as < 10.0 µM.
Turning to `Cc1ncsc1-c1ccc(CNC(=O)c2cc(C#N)cc(O)n2)cc1` [compound 42], the IC50 in data set [4] (setting [7]) is 144 ± 10 µM. Moreover, in data set [6], the solubility is reported as > 500.0 µM.
The like results for `NC(=O)c1cn[nH]c1-c1cccc2ccccc12` [compound 43] were, in that order, > 500 µM and > 500.0 µM.
